Experimental data: article PMC12221113, “Deferasirox Derivatives as Inhibitors of Kallikrein‐Related Peptidases Associated to Neurodegenerative Diseases” (Chemmedchem, 2025)
Where two headings read alike, the source gives them in different places.

Assays:
[1] = UV–vis spectroscopy of Fe3+ chelation and complex stability; format: physicochemical; conditions: activity buffer pH 7.4, 1:1 ratio, t = 0 to 240 min
Method: UV–vis analysis of DFX was first performed to monitor the chelation process and the stability of the Fe^3+ complex over time at a 1:1 ratio, typically representing the duration of inhibition assay (30 min to 4 h) (Figure S1, Supporting Information). In these conditions of pH (7.4) and ligand‐to‐iron ratio and according to Steinhauser et al. the main species in solution is assigned to [Fe(DFX)2]^3−.^[ [49] ^] Indeed, we aimed to explore not only the chelation properties but also the impact of the chelated species on enzyme inhibition.
2.c. Chelation properties, iron interactions, and selectivity profiles of selected compounds targeting KLK activity.
Figure S2: Stability of the chelated species as monitored by spectrophotometry. UV/VIS spectra of molecules alone using activity buffer at pH 7.4 (in orange at 500 µM) or in the presence of FeCl3 (ratio of 1:1) at different times (t = 0 in red, 30 min in black, 60 min in blue and 240 min in green). The purple trace corresponds to iron only at 500 µM All data are representative of 2 independent experiments performed in duplicate. […]

[2] = CCK8 cell viability assay, HMC3; format: cell-based; conditions: human, HMC3 microglial cells; HMC3, 24h, 25 and 50 μM, in absence or presence of iron (100 µM FAC); read-out: percentage of cell viability
Method: (§1) Human neuroblastoma cell line (SH-SY5Y) was purchased at American Type Culture Collection
(§2) Both cell lines were cultured in Dulbecco’s Modified Eagle Medium (DMEM)
(§3) containing 10% heat inactivated fetal bovine serum (FBS), 1% Penicillin/Streptomycin, 10 mM
(§4) Sodium Pyruvate, 2 mM L-Glutamine and 4,5 g/L D-glucose at 37°C, in a 5% humidified
(§5) incubator. Cells were cultivated until 80% confluence in flasks then were plated in 96-well
(§6) plates. For this experiment, SH-SY5Y were used at 10th passage and HMC3 at 13th. SH-SY5Y
(§7) cells were seeded at a density of 3x10^4 cells/well and HMC3 at a density of 10^4 cells/well. After
(§8) seeding, cells were left in complete medium overnight to adhere to the plates. After that, cells
(§9) were treated using inhibitors solubilized in DMSO at stock concentrations of 2,5 mM or 5 mM
(§10) with or without 10 mM iron. Iron solution was prepared by using FAC (Ferric Ammonium
(§11) Citrate, Sigma®) at stock concentration of 25 mM. After 24h of treatment, cell viability was
(§12) assessed with the CCK8 (Cell-Counting Kit 8) from TargetMol. After treatments, 10 µL of CCK8
(§13) reagent was diluted in 90 µL of complete medium and added to each well. After 3 hours at
(§14) 37°C, cell viability was assessed by absorbance measurement at 460 nm. Each viability assay
(§15) is the mean of two independent experiments performed in triplicates.
(§16) treated for 24h with the two selected concentrations of inhibitor (25 µM or 50 µM)
(§17) preincubated or not with 100 µM of FAC. The data are the mean of two independent
experiments performed in triplicates.

[3] = CCK8 cell viability assay, SH-SY5Y; format: cell-based; conditions: human, SH-SY5Y neuroblastoma cells, 25 and 50 μM, in absence or presence of iron (100 µM FAC), read-out: percentage of cell viability
Method: as §1, §2, §3, §4, §5, §6, §7, §8, §9, §10, §11, §12, §13, §14, §15, §16, §17
experiments performed in triplicates.

KLK4 = molecular target: T1, KLK4 (Homo sapiens, UniProt Q9Y5K2); test: Selectivity screening, KLK4; format: biochemical; conditions: 50 μM compound, without Fe3+; read-out: percentage of inhibition KLK4
T1 construct: purchased R&D Systems

KLK14 = molecular target: T2, KLK14 (Homo sapiens, UniProt Q9P0G3); test: Selectivity screening, KLK14; format: biochemical; conditions: 50 μM compound, without Fe3+; read-out: percentage of inhibition KLK14
T2 construct: purchased R&D Systems
T2 sequence (Q9P0G3 25-251): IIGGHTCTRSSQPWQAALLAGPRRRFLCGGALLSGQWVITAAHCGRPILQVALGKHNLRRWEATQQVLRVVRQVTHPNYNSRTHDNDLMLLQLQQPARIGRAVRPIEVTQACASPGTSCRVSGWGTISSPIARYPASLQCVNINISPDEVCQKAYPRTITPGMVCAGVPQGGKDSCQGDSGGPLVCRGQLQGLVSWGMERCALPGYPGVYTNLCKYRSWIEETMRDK

[4] = tested on: KLK's of the CNS triad (KLK1‐KLK6‐KLK8); test: Reversibility analysis by dilution after preincubation; format: biochemical, human; conditions: 100-fold dilution after 15 min preincubation
Method: Aliquots of reaction mixtures (1 μL) were added to 99 μL of buffer containing the fluorogenic substrate (experimental conditions identical to the routine protocol used for a given enzyme). The mechanism of inhibition was determined by varying substrate and inhibitor concentrations, the type of inhibition and inhibition parameter (Ki or Ki′) are determined by Dixon's plots.

KLK5 = molecular target: T3, KLK5 (Homo sapiens, UniProt Q9Y337); test: Selectivity screening, KLK5; conditions: read-out: percentage of inhibition KLK5
T3 sequence (Q9Y337 67-293 limits assumed): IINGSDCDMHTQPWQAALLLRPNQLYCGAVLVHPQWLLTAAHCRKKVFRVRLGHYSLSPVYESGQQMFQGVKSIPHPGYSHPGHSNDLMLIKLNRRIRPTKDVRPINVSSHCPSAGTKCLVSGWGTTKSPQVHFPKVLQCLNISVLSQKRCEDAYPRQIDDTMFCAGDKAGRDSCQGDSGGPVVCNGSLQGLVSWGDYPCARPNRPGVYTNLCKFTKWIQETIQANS
Method: (§18) All enzyme stocks were stored at −20 °C and purchased from R&D Systems as proenzymes (KLK6, KLK8, KLK13) or as mature and active forms (KLK5). Activation of KLK6, KLK8, and KLK13 is performed in optimized buffers. The activation reaction is initiated by Lysyl‐Endopeptidase at 2.5 mU mL^−1 (Wako Bioproducts). The activation reaction is stopped by diluting the enzyme to 0.5 μg mL^−1 in assay buffer (50 mM Tris, 1 M Citrate, 0.05% w/v Brij‐35, pH 8) to obtain an active enzyme stock. KLK1 was purchased from R & D Systems as pro‐KLK1. Activation of KLK1 is performed in 50 mM Tris‐HCl, 10 mM CaCl2, 150 mM NaCl, 0.05% Brij‐35, pH 7.5. The activation reaction is initiated by bacterial thermolysin at 0.4 μg mL^−1 (Sigma‐Aldrich) and stopped by addition of 100 mM EDTA (Sigma‐Aldrich) to obtain an active KLK1 stock at the same concentration of 100 μg mL^−1. The activation reactions for KLK7 are initiated bacterial thermolysin at 0.4 μg mL^−1 (Sigma‐Aldrich) and stopped by addition of 100 mM EDTA (Sigma‐Aldrich) to obtain active stocks. All enzyme stocks were stored at −20 °C. H‐PFR‐AMC (KLK1), Boc‐VPR‐AMC (KLK5, KLK8, KLK13), Boc‐QAR‐AMC (KLK6, Plasmin), substrates were purchased from Bachem. MeO‐Suc‐RPY‐AMC (KLK7) substrate was purchased from AAT Bioquest. Plasmin (Sigma‐Aldrich) was purchased in mature and active form.
(§19) Compounds were screened on KLKs using a BMG Fluostar microplate reader (black 96‐well microplates). Hit compounds were screened on the selected group of enzymes using optimized concentrations and buffers (KLK1 0.8 nM, KLK4 10 nM, KLK5 0.2 nM; KLK6 1.9 nM; KLK7 6 nM; KLK8 0.2 nM; KLK11 5.2 nM, KLK13 0.47 nM, KLK14 2.5 nM, plasmin 3.3 nM, thrombin 0.1 nM, tissue‐plasminogen activator (tPA) 0.1 nM, matriptase 1 nM, cathepsin L 2 nM) either in absence or prior preincubation in the presence of 100 μM of Fe^3+.
(§20) The proteases are first preincubated for 15 min with each compound (50 and 100 μM) or with DMSO (<2%, negative control) in a total volume of 85 μL of 50 mM Tris buffer, 1 M citrate, 0.05% Brij‐35, pH 7, 37 °C. The reaction is triggered by the appropriate substrate at the optimized concentration in 15 μL of 50 mM Tris buffer, 1 M citrate, 0.05% Brij‐35, pH 8 (H‐PFR‐AMC 100 μM; Boc‐VPR‐AMC 100 μM; Boc‐QAR‐AMC 100 μM; Meo‐Suc‐RPY‐AMC 150 μM, Z‐LR‐AMC 100 μM, Z‐GGR‐AMC 100 μM) and followed for 30 min at 37 °C. […] The release of the AMC fluorescent group is detected using the following wavelengths: λex = 360 nm and λem = 460 nm. The percent inhibition is calculated from Equation (1) where V 0 is the initial rate of the DMSO control, the initial rate in the presence of the inhibitor V i. (1) %inhibition=(1−(vi/v0))×100

[5] = Calcein transchelation (calcein release) assay; format: physicochemical; conditions: calcein 100 nM, 4 h at room temperature; estimation, assay not fully quantitative; read-out: Apparent affinity (pseudo‐affinity constant Kd for Fe3+)
KLK8 = molecular target: T4, KLK8 (Homo sapiens, UniProt O60259); test: KLK8 fluorogenic enzyme inhibition assay (Boc-VPR-AMC); conditions: for Ki′ KLK8 / Type of inhibition KLK8: Dixon plot, without Fe3+; for Ki′ KLK8: 100 μM substrate; for inhibition at 50 µM: read-out: percentage of inhibition KLK8
T4 sequence (O60259 33-260): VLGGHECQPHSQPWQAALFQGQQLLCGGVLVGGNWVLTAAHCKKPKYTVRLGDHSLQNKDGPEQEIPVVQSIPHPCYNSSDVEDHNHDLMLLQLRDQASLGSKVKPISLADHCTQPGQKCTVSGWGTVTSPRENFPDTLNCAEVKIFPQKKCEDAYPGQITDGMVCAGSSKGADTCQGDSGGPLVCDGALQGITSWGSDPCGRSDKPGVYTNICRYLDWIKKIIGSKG
Method: (§21) All enzyme stocks were stored at −20 °C and purchased from R&D Systems as proenzymes (KLK6, KLK8, KLK13) or as mature and active forms (KLK5). Activation of KLK6, KLK8, and KLK13 is performed in optimized buffers. The activation reaction is initiated by Lysyl‐Endopeptidase at 2.5 mU mL^−1 (Wako Bioproducts). The activation reaction is stopped by diluting the enzyme to 0.5 μg mL^−1 in assay buffer (50 mM Tris, 1 M Citrate, 0.05% w/v Brij‐35, pH 8) to obtain an active enzyme stock. KLK1 was purchased from R & D Systems as pro‐KLK1. Activation of KLK1 is performed in 50 mM Tris‐HCl, 10 mM CaCl2, 150 mM NaCl, 0.05% Brij‐35, pH 7.5. The activation reaction is initiated by bacterial thermolysin at 0.4 μg mL^−1 (Sigma‐Aldrich) and stopped by addition of 100 mM EDTA (Sigma‐Aldrich) to obtain an active KLK1 stock at the same concentration of 100 μg mL^−1. […] All enzyme stocks were stored at −20 °C. H‐PFR‐AMC (KLK1), Boc‐VPR‐AMC (KLK5, KLK8, KLK13), Boc‐QAR‐AMC (KLK6, Plasmin), substrates were purchased from Bachem. […] Plasmin (Sigma‐Aldrich) was purchased in mature and active form.
as §19, §20
(§22) The equation is entered in the Kaleidagraph 4.5 software for curve fitting f([I]) = % Inhibition, where [I] is the inhibitor concentration.
(§23) The mechanism of inhibition was determined by varying substrate and inhibitor concentrations, the type of inhibition and inhibition parameter (Ki or Ki′) are determined by Dixon's plots.

KLK13 = molecular target: T5, KLK13 (Homo sapiens, UniProt Q9UKR3); test: Selectivity screening, KLK13; conditions: read-out: percentage of inhibition KLK13
T5 sequence (Q9UKR3 26-277 limits assumed): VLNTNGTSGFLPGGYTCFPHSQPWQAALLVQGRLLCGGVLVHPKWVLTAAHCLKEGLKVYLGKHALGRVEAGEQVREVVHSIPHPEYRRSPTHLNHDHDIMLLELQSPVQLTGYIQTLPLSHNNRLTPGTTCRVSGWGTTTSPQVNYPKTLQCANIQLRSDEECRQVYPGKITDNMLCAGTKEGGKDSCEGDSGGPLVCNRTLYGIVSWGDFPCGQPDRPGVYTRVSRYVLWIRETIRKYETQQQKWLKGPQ
Method: as §18, §19, §20

KLK11 = molecular target: T6, KLK11 (Homo sapiens, UniProt Q9UBX7); test: Selectivity screening, KLK11; format: biochemical; conditions: 50 μM compound, without Fe3+; read-out: percentage of inhibition KLK11
T6 construct: purchased R&D Systems
T6 sequence (Q9UBX7 54-282): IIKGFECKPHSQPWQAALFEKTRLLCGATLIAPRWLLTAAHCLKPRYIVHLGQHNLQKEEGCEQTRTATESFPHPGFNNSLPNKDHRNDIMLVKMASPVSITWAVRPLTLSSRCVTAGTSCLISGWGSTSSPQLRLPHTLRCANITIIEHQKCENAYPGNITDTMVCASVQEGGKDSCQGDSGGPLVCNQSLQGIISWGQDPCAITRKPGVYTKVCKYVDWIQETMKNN

KLK7 = KLK7 (Homo sapiens, UniProt P49862); test: Selectivity screening, KLK7; conditions: read-out: percentage of inhibition KLK7
Method: as §18
(§24) Compounds were screened on KLKs using a BMG Fluostar microplate reader (black 96‐well microplates). […]
(§25) The proteases are first preincubated for 15 min with each compound (50 and 100 μM) or with DMSO (<2%, negative control) in a total volume of 85 μL of 50 mM Tris buffer, 1 M citrate, 0.05% Brij‐35, pH 7, 37 °C. […] The release of the AMC fluorescent group is detected using the following wavelengths: λex = 360 nm and λem = 460 nm. The percent inhibition is calculated from Equation (1) where V 0 is the initial rate of the DMSO control, the initial rate in the presence of the inhibitor V i. […]

[6] = tested on: targeted KLKs (KLK1, KLK6, KLK8); test: Impact of preincubated compound (50 μM) and Fe3+ (100 μM) on targeted KLKs; format: biochemical, human; conditions: compound 50 μM preincubated with Fe3+ 100 μM
Method: Next, we evaluated the impact of preincubated mixtures of each compound at 50 μM and Fe^3+ at 100 μM to model an iron overload condition on targeted KLKs (Figure S5, Supporting Information).

Plasmin = Plasmin (Homo sapiens, UniProt P00747); test: Selectivity screening, plasmin; conditions: read-out: percentage of inhibition Plasmin
Method: All enzyme stocks were stored at −20 °C and purchased from R&D Systems as proenzymes (KLK6, KLK8, KLK13) or as mature and active forms (KLK5). Activation of KLK6, KLK8, and KLK13 is performed in optimized buffers. The activation reaction is initiated by Lysyl‐Endopeptidase at 2.5 mU mL^−1 (Wako Bioproducts). The activation reaction is stopped by diluting the enzyme to 0.5 μg mL^−1 in assay buffer (50 mM Tris, 1 M Citrate, 0.05% w/v Brij‐35, pH 8) to obtain an active enzyme stock. KLK1 was purchased from R & D Systems as pro‐KLK1. Activation of KLK1 is performed in 50 mM Tris‐HCl, 10 mM CaCl2, 150 mM NaCl, 0.05% Brij‐35, pH 7.5. […]
as §24, §25

Cathepsin L = Cathepsin L (Homo sapiens, UniProt P07711); test: Selectivity screening, cathepsin L; format: biochemical; conditions: 50 μM compound, without Fe3+; read-out: percentage of inhibition Cathepsin L
KLK1 = KLK1 (Homo sapiens, UniProt P06870); test: KLK1 fluorogenic enzyme inhibition assay (H-PFR-AMC); conditions: for inhibition at 50 µM: read-out: percentage of inhibition KLK1; for IC50: IC50 KLK1, 15 min preincubation at 37 °C, NI = not a hit (not above 50% inhibition at 50 μM)
Method: as §21, §19, §20, §22, §23

Thrombin = Thrombin (Homo sapiens, UniProt P00734); test: Selectivity screening, thrombin; format: biochemical; conditions: 50 μM compound, without Fe3+; read-out: percentage of inhibition Thrombin
KLK6 = KLK6 (Homo sapiens, UniProt Q92876); test: KLK6 fluorogenic enzyme inhibition assay (Boc-QAR-AMC)
Method: as §21, §19, §20, §22, §23

[7] = IC50 KLK8, 15 min preincubation at 37 °C, NI = not a hit (not above 50% inhibition at 50 μM)

T1 sequence (Q9Y5K2 31-254): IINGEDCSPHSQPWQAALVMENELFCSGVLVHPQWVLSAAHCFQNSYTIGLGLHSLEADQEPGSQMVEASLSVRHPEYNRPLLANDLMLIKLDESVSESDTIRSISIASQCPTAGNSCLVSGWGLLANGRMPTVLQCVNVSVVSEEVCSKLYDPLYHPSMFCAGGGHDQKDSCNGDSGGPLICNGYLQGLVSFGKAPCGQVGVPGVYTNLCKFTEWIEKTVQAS
Chain of KLK1 (P06870 25-262): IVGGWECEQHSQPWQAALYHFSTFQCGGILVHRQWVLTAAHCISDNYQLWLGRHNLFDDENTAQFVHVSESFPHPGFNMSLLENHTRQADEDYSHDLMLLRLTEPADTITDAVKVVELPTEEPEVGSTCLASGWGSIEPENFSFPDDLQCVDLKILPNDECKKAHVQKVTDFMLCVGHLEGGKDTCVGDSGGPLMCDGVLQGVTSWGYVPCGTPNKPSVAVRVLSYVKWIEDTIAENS
Chain of KLK7 (P49862 30-253): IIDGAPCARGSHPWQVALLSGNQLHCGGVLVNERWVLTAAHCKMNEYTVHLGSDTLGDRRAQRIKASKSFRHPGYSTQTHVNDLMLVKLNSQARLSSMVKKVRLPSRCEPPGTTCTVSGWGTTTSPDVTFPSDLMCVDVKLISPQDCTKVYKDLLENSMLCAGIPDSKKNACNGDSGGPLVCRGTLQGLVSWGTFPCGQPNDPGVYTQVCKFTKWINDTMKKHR
Chain of Cathepsin L (P07711 114-333, species assumed): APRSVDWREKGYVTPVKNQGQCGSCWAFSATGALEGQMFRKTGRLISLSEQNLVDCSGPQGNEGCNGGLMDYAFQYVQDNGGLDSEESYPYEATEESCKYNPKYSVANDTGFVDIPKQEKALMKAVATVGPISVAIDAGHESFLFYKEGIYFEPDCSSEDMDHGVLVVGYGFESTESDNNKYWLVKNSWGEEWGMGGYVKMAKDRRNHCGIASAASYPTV
Chain of Plasmin (P00747 581-810 limits assumed, species assumed): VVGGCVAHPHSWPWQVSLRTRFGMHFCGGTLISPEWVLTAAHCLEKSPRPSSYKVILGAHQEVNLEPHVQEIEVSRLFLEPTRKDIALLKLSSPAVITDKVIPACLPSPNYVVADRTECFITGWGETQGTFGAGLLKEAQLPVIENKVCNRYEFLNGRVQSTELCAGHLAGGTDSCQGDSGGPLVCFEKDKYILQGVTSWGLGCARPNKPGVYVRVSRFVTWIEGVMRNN
Chain of Plasmin (P00747 97-580 partner limits assumed, species assumed): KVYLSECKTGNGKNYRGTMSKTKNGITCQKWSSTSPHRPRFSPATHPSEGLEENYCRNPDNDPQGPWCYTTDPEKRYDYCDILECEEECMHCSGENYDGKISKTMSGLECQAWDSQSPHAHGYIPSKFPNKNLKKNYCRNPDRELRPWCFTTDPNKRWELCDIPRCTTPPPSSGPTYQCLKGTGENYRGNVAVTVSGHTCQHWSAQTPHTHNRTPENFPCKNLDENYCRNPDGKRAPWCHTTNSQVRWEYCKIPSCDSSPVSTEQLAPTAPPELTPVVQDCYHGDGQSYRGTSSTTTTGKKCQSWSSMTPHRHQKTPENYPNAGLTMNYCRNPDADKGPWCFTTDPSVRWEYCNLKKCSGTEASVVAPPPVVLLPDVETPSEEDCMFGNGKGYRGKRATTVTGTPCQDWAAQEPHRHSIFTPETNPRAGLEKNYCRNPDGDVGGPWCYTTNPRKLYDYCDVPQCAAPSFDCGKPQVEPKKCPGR

Row | SMILES | viability at 24 h [2] [%] | viability at 24 h [3] [%] | inhibition at 50 µM (KLK4) [%] | inhibition at 50 µM (KLK14) [%] | reversibility and time dependence of inhibition [4] | inhibition at 50 µM (KLK5) [%] | Kd [5] [nM] | Ki′ KLK8 (KLK8) [µM] | Type of inhibition KLK8 (KLK8) | inhibition at 50 µM (KLK8) [%] | inhibition at 50 µM (KLK13) [%] | inhibition at 50 µM (KLK11) [%] | inhibition at 50 µM (KLK7) [%] | IC50 (KLK8) [µM] | change of inhibitory activity in the presence of iron [6] | also measured
1 | O=C(O)c1ccc(-n2nc(-c3ccccc3O)nc2-c2ccccc2O)cc1 [3a, Deferasirox] | > 80 | > 80 | 80.6 | 94.2 | reversible and time‐independent inhibitors | 85.1 | 0.549 ± 0.007 | 8 | Uncompetitive | 70.1 | 95.1 | 90.6 |  |  |  | UV–vis spectrum in the presence of FeCl3 (iron complex formation) [1]: appearance of an absorption band with a maximum at 468 nm; Type of inhibition KLK8 (KLK8; listed as DFX): uncompetitive inhibition; IC50 (KLK8; [7]): 29.2 ± 1 µM; IC50 (KLK8; IC50 KLK8, initial screening of an in‐house array of 1,2,4‐triazole derivatives): ~30 µM
2 | O=C(O)c1cccc(-n2nc(-c3ccccc3O)nc2-c2ccccc2O)c1 [3b] | > 80 | > 80 | 83.8 | 95.1 | reversible and time‐independent inhibitors | 98.1 | 0.063 ± 0.011 | 18 | Uncompetitive | 62.1 |  | 90.9 | 88.1 | 21.4 ± 0.4 |  | 
3 | Oc1ccccc1-c1n[nH]c(-c2ccccc2O)n1 [3c] |  |  |  |  |  |  | 0.032 ± 0.012 |  |  |  |  |  |  |  | significant higher inhibitory potency in the presence of Fe^3+ on all KLKs | IC50 (KLK8; [7]): > 50 µM
4 | CC(C)(C)n1nc(-c2ccccc2O)nc1-c1ccccc1O [3d] |  |  |  |  |  |  | 2.15 ± 0.11 |  |  |  |  |  |  | > 50 | do not show an increased inhibitory activity in the presence of iron | 
5 | O=C(NC(Cc1c[nH]c2ccccc12)C(=O)O)c1ccc(-n2nc(-c3ccccc3O)nc2-c2ccccc2O)cc1 (stereo not shown) [3lb] | > 80 | > 80 | 99.7 | 98.8 | reversible and time‐independent inhibitors | 98.2 |  |  |  | 50.2 | 98.1 | 81.4 | 90.5 | 27.1 ± 1.1 |  | inhibition at 50 µM (Plasmin): 60.5%; inhibition at 50 µM (Cathepsin L): < 50%; Ki (KLK8): 12 µM; inhibition at 50 µM (KLK1): 90.1%
6 | O=C(O)C1CCCN1C(=O)c1ccc(-n2nc(-c3ccccc3O)nc2-c2ccccc2O)cc1 (stereo not shown) [3mb] | > 80 | > 80 | 77.3 | 89.7 | reversible and time‐independent inhibitors | 95.1 | 0.029 ± 0.017 | 25 | uncompetitive inhibition | 63.1 | 85.2 | 76.7 | 70.1 | 25.9 ± 0.7 |  | inhibition at 50 µM (Thrombin): 61.1%
7 | Oc1ccc(-n2nc(-c3ccccc3O)nc2-c2ccccc2O)cc1 [3r] | > 80 | > 80 | 84.3 | 62.2 | reversible and time‐independent inhibitors | 85.5 | 0.062 ± 0.014 |  |  |  | 98.3 |  |  | > 50 |  | inhibition at 50 µM (KLK6; read-out: percentage of inhibition KLK6): < 50%; Ki (KLK1): 29 µM; Type of inhibition KLK1 (KLK1; Dixon plot, without Fe3+): Noncompetitive; IC50 (KLK1): 16.4 ± 1.3 µM; inhibition at 50 µM (KLK1): 79.1%; inhibition at 50 µM (Thrombin): < 50%
8 | CC(=O)Oc1ccccc1-c1nc(-c2ccccc2OC(C)=O)n(-c2ccc(C(=O)O)cc2)n1 [compound 22] |  |  |  |  |  |  |  |  |  |  |  |  |  | > 50 | do not show an increased inhibitory activity in the presence of iron | UV–vis spectrum in the presence of FeCl3 (iron complex formation) [1]: no changes in the absorption spectra; IC50 (KLK6): > 50 µM; IC50 (KLK1): > 50 µM
